For this assay, the target named is INO80 (Saccharomyces cerevisiae, UniProt P53115). Nature of the assay: real-time fluorescent phosphate-release ATPase assay. Format: biochemical. The settings on record: 0.1 nM INO80; with or without 15 nM nucleosomes or DNA; 23 °C.

The values that follow come from paper PMC7251641 (Cell, 2010).

As for `Nc1ncnc2c1ncn2[C@@H]1O[C@H](COP(=O)(O)OP(=O)(O)OP(=O)(O)O)[C@@H](O)[C@H]1O` [ATP], the KM result is “KM for the ATPase of SWR1, INO80, and SWI/SNF in the presence or absence”.
